Source: ChEMBL document CHEMBL4507276 (2021)

Tests used:
[1] = biological target: Leukocyte tyrosine kinase receptor (Homo sapiens) (UniProt P29376); conditions: Compound concentration 1000.0 nM
[2] = biological target: Serine/threonine-protein kinase 26 (Homo sapiens) (UniProt Q9P289); conditions: Compound concentration 1000.0 nM
[3] = biological target: T1, Serine/threonine-protein kinase 4 (Homo sapiens) (UniProt Q13043); conditions: Compound concentration 1000.0 nM
T1 sequence (whole entry): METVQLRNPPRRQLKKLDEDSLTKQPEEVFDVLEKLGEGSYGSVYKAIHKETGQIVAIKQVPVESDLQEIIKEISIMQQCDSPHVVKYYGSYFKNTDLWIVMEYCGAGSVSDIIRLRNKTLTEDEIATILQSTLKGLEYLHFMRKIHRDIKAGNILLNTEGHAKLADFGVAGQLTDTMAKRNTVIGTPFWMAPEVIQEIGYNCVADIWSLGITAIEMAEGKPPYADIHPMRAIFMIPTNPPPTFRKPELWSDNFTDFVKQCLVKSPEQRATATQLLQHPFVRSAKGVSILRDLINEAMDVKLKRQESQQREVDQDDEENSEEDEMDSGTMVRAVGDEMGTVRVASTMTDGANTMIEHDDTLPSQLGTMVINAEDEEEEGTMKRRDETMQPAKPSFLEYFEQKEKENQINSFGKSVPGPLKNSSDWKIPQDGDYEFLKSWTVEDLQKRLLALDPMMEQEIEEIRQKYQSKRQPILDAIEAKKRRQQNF

[4] = biological target: Protein kinase C eta type (Homo sapiens) (UniProt P24723); conditions: Compound concentration 1000.0 nM
[5] = biological target: Mitogen-activated protein kinase 7 (Homo sapiens) (UniProt Q13164); conditions: Compound concentration 1000.0 nM
Mitogen-activated protein kinase 7 (Homo sapiens), sequence (Q13164 2-816 limits assumed): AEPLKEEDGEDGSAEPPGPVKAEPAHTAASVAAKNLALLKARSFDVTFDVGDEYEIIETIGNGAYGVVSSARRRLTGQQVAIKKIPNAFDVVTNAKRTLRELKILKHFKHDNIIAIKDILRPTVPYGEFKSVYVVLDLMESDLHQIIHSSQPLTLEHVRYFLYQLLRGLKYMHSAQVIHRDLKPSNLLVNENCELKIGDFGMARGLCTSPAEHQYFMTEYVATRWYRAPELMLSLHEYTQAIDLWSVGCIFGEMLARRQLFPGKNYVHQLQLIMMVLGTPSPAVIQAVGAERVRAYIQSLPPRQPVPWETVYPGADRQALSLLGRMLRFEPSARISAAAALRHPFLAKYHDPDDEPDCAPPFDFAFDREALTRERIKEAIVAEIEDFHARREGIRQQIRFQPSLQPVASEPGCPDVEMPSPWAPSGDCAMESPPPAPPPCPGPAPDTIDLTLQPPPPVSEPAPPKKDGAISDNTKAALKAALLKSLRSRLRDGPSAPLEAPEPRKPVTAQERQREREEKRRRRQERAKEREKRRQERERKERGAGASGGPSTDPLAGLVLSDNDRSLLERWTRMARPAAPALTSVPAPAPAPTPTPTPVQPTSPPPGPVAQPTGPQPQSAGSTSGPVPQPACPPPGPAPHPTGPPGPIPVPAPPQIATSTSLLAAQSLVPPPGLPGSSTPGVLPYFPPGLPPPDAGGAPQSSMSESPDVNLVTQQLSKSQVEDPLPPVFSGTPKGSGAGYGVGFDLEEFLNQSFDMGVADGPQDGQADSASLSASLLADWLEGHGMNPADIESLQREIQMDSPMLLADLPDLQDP

[6] = biological target: Serine/threonine-protein kinase MRCK alpha (Homo sapiens) (UniProt Q5VT25); conditions: Compound concentration 1000.0 nM
[7] = biological target: Serine/threonine-protein kinase PLK4 (Homo sapiens) (UniProt O00444); conditions: Compound concentration 1000.0 nM
[8] = tested on: Tyrosine-protein kinase ABL1 (Homo sapiens), P00519 [T315I]; conditions: Compound concentration 1000.0 nM
[9] = biological target: T2, Alpha-1A adrenergic receptor (Homo sapiens) (UniProt P35348); conditions: Compound concentration 10.0 uM
T2 sequence (whole entry): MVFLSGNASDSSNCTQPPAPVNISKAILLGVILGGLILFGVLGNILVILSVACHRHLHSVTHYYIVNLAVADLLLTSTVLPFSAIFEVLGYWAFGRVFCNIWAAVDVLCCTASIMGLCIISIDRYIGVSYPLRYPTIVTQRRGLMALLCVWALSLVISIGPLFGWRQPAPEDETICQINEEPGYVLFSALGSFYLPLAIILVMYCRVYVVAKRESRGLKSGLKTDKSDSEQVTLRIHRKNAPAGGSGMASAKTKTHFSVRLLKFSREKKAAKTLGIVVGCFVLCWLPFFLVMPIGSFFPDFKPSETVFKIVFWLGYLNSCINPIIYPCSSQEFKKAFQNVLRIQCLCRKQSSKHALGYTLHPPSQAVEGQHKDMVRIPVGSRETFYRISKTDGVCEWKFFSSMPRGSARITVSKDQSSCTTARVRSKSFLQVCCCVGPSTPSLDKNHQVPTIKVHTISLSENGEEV

[10] = biological target: Cyclin-dependent kinase 16 (Homo sapiens) (UniProt Q00536); conditions: Compound concentration 1000.0 nM
Cyclin-dependent kinase 16 (Homo sapiens), sequence (Q00536 whole entry): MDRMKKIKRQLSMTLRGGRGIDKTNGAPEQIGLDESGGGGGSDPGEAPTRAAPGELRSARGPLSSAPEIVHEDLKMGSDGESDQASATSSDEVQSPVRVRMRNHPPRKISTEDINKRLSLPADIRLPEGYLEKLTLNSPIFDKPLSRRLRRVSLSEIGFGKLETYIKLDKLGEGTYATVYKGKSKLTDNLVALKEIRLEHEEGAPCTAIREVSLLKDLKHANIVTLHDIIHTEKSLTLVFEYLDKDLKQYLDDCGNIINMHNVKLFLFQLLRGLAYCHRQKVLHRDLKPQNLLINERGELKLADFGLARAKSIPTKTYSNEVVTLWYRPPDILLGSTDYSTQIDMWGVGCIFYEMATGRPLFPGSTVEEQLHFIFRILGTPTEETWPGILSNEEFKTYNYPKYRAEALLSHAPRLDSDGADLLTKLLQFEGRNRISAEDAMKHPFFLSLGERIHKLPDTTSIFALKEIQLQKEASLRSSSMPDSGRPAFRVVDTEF

[11] = biological target: Serine/threonine-protein kinase MAK (Homo sapiens) (UniProt P20794); conditions: Compound concentration 1000.0 nM
Serine/threonine-protein kinase MAK (Homo sapiens), sequence (P20794 whole entry): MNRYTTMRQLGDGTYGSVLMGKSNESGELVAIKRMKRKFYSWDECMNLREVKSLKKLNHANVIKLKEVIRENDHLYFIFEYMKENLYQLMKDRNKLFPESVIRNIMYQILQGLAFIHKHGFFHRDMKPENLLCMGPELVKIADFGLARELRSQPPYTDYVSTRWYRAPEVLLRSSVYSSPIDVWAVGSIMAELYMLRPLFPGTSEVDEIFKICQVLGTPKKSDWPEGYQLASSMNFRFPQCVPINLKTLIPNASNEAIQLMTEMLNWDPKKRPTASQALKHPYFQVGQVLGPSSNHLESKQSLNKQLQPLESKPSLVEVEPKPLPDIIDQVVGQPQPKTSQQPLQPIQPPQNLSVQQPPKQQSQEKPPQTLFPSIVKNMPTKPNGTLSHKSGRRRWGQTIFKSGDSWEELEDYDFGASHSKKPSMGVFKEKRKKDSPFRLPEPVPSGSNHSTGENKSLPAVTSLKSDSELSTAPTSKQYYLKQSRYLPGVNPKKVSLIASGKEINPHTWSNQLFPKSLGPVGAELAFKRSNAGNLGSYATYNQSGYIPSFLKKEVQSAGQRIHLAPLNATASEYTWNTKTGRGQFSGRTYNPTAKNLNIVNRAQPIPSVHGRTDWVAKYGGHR

[12] = biological target: T3, Interleukin-1 receptor-associated kinase 4 (Homo sapiens) (UniProt Q9NWZ3); conditions: Compound concentration 1000.0 nM
T3 sequence (whole entry): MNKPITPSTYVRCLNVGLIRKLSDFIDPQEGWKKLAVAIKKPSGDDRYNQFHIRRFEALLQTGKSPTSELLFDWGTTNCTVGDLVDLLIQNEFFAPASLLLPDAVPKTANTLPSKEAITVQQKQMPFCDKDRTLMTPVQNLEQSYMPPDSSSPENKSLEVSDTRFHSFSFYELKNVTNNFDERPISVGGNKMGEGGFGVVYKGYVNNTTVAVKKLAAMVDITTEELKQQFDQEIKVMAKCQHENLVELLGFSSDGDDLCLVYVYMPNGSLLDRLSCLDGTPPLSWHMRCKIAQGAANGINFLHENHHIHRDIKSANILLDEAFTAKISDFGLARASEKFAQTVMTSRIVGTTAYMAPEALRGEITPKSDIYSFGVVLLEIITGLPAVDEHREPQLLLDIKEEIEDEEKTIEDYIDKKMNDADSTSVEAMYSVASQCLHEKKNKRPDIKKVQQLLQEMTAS

[13] = biological target: Dual specificity protein kinase CLK1 (Homo sapiens) (UniProt P49759); conditions: Compound concentration 1000.0 nM
Dual specificity protein kinase CLK1 (Homo sapiens), sequence (P49759 whole entry, looked up, canonical isoform): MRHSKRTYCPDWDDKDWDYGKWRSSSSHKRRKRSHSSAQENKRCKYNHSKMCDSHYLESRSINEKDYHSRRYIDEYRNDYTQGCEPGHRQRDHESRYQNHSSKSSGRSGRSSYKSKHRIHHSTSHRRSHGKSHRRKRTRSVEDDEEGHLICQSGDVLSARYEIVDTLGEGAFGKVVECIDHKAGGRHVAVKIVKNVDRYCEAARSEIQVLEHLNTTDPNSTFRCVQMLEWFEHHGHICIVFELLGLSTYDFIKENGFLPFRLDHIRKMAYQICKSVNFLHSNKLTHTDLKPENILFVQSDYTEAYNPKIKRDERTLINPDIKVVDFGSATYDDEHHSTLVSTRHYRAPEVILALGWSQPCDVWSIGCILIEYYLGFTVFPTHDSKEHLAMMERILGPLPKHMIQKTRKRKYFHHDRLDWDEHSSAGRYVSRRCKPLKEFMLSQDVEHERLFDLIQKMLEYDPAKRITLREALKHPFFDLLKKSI

[14] = biological target: Casein kinase I isoform alpha-like (Homo sapiens) (UniProt Q8N752); conditions: Compound concentration 1000.0 nM
Casein kinase I isoform alpha-like (Homo sapiens), sequence (Q8N752 whole entry, canonical isoform): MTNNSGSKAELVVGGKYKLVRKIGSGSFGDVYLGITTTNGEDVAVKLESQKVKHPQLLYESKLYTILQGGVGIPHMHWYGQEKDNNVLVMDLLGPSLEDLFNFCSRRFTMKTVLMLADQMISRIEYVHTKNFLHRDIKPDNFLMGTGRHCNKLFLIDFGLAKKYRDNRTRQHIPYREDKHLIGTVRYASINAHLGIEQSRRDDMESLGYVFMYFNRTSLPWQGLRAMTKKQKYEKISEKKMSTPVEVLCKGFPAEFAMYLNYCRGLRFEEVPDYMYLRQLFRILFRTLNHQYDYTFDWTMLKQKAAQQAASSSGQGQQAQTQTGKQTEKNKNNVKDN

[15] = biological target: Aurora kinase B (Homo sapiens) (UniProt Q96GD4); conditions: Compound concentration 1000.0 nM
Aurora kinase B (Homo sapiens), sequence (Q96GD4 whole entry): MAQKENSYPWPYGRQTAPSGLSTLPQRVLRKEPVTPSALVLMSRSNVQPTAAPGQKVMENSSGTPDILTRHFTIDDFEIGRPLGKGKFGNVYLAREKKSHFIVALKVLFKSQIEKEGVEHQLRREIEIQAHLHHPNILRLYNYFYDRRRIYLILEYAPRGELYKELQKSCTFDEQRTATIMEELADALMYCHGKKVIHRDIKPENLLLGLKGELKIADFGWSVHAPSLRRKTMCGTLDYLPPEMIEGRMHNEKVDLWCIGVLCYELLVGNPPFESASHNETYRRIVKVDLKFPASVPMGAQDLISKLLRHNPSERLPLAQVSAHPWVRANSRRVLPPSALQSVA

[16] = biological target: Cyclin-dependent kinase 18 (Homo sapiens) (UniProt Q07002); conditions: Compound concentration 1000.0 nM
[17] = biological target: T4, cAMP-dependent protein kinase catalytic subunit PRKX (Homo sapiens) (UniProt P51817); conditions: Compound concentration 1000.0 nM
T4 sequence (whole entry): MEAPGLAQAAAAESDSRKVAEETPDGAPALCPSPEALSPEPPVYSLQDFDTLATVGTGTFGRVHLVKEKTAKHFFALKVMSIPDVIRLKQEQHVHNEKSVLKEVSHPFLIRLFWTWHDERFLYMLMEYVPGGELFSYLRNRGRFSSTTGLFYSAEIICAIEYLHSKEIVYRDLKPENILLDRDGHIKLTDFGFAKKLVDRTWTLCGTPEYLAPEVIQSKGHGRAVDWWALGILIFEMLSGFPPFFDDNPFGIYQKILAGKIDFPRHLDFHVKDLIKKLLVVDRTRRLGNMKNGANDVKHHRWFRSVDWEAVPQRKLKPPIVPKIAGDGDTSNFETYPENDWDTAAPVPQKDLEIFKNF

[18] = biological target: Tyrosine-protein kinase CSK (Homo sapiens) (UniProt P41240); conditions: Compound concentration 1000.0 nM
Tyrosine-protein kinase CSK (Homo sapiens), sequence (P41240 2-450 limits assumed): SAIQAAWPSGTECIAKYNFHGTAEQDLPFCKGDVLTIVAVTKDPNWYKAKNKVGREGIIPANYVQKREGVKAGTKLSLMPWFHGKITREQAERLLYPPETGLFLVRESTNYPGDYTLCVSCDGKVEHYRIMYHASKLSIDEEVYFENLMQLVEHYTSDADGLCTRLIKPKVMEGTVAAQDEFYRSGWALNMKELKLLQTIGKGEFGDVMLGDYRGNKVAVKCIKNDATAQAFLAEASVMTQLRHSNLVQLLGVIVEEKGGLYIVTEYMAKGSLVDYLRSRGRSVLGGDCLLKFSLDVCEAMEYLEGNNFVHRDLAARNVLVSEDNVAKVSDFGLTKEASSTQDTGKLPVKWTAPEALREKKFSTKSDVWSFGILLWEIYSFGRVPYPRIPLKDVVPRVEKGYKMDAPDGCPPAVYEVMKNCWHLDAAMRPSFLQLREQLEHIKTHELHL

[19] = biological target: MAP kinase-interacting serine/threonine-protein kinase 2 (Homo sapiens) (UniProt Q9HBH9); conditions: Compound concentration 1000.0 nM
MAP kinase-interacting serine/threonine-protein kinase 2 (Homo sapiens), sequence (Q9HBH9 whole entry, looked up): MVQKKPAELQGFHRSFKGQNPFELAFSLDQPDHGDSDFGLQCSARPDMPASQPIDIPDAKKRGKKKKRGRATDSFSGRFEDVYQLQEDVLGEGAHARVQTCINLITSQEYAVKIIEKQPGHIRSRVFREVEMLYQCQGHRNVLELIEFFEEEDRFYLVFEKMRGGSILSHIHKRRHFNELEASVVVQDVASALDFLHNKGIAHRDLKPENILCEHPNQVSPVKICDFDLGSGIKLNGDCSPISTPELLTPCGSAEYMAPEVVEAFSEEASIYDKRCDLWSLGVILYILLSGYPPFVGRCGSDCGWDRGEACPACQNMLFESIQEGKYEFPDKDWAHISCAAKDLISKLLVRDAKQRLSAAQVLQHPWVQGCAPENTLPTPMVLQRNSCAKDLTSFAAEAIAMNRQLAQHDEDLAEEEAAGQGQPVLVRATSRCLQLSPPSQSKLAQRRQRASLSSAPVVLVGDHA

[20] = biological target: Cyclin-dependent kinase-like 2 (Homo sapiens) (UniProt Q92772); conditions: Compound concentration 1000.0 nM
Cyclin-dependent kinase-like 2 (Homo sapiens), sequence (Q92772 whole entry): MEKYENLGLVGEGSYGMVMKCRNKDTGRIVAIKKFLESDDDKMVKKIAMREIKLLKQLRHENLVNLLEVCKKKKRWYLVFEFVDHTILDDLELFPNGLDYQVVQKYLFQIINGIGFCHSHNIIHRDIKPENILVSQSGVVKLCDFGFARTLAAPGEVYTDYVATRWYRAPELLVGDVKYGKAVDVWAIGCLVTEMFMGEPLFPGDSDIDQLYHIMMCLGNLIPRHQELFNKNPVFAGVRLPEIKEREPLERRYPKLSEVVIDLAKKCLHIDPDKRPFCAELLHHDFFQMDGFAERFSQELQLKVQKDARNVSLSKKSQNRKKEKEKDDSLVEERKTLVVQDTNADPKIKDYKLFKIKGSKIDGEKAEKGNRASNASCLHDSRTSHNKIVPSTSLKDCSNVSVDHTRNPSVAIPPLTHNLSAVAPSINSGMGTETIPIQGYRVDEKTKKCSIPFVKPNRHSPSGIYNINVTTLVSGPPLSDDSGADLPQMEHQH

Serine/threonine-protein kinase 26 (Homo sapiens), sequence (Q9P289 2-416 limits assumed): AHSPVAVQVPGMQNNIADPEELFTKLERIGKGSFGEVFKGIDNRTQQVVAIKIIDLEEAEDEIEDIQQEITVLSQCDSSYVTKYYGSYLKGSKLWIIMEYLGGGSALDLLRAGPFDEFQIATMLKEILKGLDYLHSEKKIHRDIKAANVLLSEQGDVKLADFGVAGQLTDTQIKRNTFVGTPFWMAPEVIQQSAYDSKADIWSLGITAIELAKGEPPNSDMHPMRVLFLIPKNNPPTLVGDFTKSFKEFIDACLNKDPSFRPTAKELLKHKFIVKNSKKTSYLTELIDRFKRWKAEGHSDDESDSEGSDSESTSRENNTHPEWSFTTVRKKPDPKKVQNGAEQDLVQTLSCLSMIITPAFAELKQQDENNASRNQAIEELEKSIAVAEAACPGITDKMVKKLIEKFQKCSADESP

SMILES | residual activity [1] [%] | residual activity [2] [%] | residual activity [3] [%] | residual activity [4] [%] | residual activity [5] [%] | residual activity [6] [%] | residual activity [7] [%] | residual activity [8] [%] | inhibition [9] [%] | residual activity [10] [%] | residual activity [11] [%] | residual activity [12] [%] | residual activity [13] [%] | residual activity [14] [%] | residual activity [15] [%] | residual activity [16] [%] | residual activity [17] [%] | residual activity [18] [%] | residual activity [19] [%] | residual activity [20] [%]
CN(C)C(=O)Cn1cc(-c2nc(C3(c4ccc(-c5cnc(N)nc5)cc4)CC3)no2)cn1 [BI 0153] | 90 | 89 | 90 | 91 | 97 | 100 | 100 | 100 | 13.9 | 80 | 87 | 84 | 100 | 98 | 41 | 83 | 100 | 100 | 94 | 100
CN(C)C(=O)Cn1cc(-c2nc([C@@](C)(c3ccc(-c4cnc(N)nc4)cc3)C3CC3)no2)cn1 [BI 665915] | 89 | 97 | 90 | 100 | 90 | 100 | 74 | 90 | 4.68 | 86 | 100 | 85 | 93 | 100 | 96 | 100 | 100 | 100 | 88 | 100
